From patent publication US20260240851A1, “Treatment of Parkinson's Disease in a Patient Using a Glucocerebrosidase Activator” (BIAL - R&D Investments, S.A., priority 2023, published 2026)

Columns and labels:
clinical = conditions: both, human, plasma, 60 mg; for AUC(0-t): Madopar portion, geometric mean
Method: This was a Phase 1, non-randomized, open-label, 2-cohort, cross-over, DDI study in healthy male and female subjects.
In Cohort 2, a single oral dose 100 mg/25 mg levodopa-benserazide (Madopar®) IR was administered alone on Day 1.

[1] = BIA 28-6156-106 mass balance recovery, metabolite profiling and PK of 14C-Compound A; type: in vivo, human
Method: This was a Phase 1, single-dose, mass balance recovery study of ^14C-Compound A in 1 cohort of healthy male subjects, aged 30 to 65 years. A total of 6 subjects received a single oral dose of 60 mg Compound A, containing not more than 3.7 MBq ^14C, under fasted conditions. Objectives included determining the routes and rates of elimination of ^14C-Compound A, identifying the structure of metabolites that account for more than 10% of circulating total radioactivity in plasma and total radioactive dose in urine and feces, exploring the PK of Compound A, evaluating the extent of distribution of TR into blood cells, and gathering additional safety and tolerability information for Compound A.

CCCCCO[C@H]1CC[C@H](NC(=O)c2cnn3c(C)cc(C)nc23)CC1 [Compound A, 5,7-dimethyl-N-((1S*,4S)-4-(pentyloxy)cyclohexyl)pyrazolo[1,5-a]pyrimidine-3-carboxamide]
Cmax (clinical): 2030 ng/mL | Tmax (clinical): 2 h | AUC(0-t) (clinical; AUC0-24, 60 mg Compound A alone): 24000 ng·h/mL | AUC(0-t) (clinical; AUC0-t, 60 mg Compound A alone): 22800 ng·h/mL | radioactivity recovered in excreta, mean ([1]; 60 mg 14C-Compound A oral, fasted, 288-hour sampling period): approximately 93% | exposure to Compound A as share of circulating plasma total recovery ([1]; based on AUC0-inf): approximately 92% | Tmax ([1]; male, human, plasma, single oral dose of 60 mg 14C BIA-28, read-out: Median Tmax): 1.5 h | AUC(0-inf) ([1]; male, human, plasma, single oral dose of 60 mg 14C BIA-28, read-out: plasma AUC0-inf, geometric mean): 42100 ng·h/mL | AUC(0-t) ([1]; male, human, plasma, single oral dose of 60 mg 14C BIA-28, read-out: plasma AUC0-last, geometric mean): 41700 ng·h/mL | Cmax ([1]; male, human, plasma, single oral dose of 60 mg 14C BIA-28, read-out: plasma Cmax, geometric mean): 1750 ng/mL | half-life ([1]; male, human, plasma, single oral dose of 60 mg 14C BIA-28, read-out: plasma half-life, geometric mean (converted)): 21.5 h
